Each structure is given as a SMILES string.

Broadly, the IC50 is the concentration that inhibits the measured activity by half. The term DC50 denotes the midpoint of the concentration-degradation curve. As usually defined, the Dmax is the greatest extent of degradation seen.

The target in assay [1] is CRBN/DDB1 (Homo sapiens (Human), UniProt Q96SW2). The class given is binding. The note with it: His tagged CRBN+DDB-DLS7+CXU4, Cy5-labeled Thalidomide probe, one hour incubation; read-out: CRBN HTRF IC50. The procedure:
The binding potency was determined using H-TRF assay technology (Perkin Elmer). Compounds were serially diluted in DMSO and 0.2 μL volume was transferred to white 384-well plate.
A general note: In TR-FRET formats the signal depends on donor and acceptor labels being close together.

Assay [2] deals with ER in MCF-7 cells (Homo sapiens (Human), UniProt P03372). Nature of the assay: In-cell western (ICW) ER degradation assay in MCF-7 cells (Compounds A1-A70). The class given is cell-based. The settings on record: MCF-7 cells, 16 hrs treatment; for DC50: ER degradation, 0.02 to 300 nM, read-out: MCF7 ICW DC50; for Dmax: MCF7, maximal ER degradation, read-out: MCF7 ICW Dmax (%). The procedure: (§1) ERa degradative activity of compounds can be assessed in MCF-7 and T47D Cells. MCF-7 and T47D cell are seeded and are subsequently treated with the compounds at certain concentrations (e.g., 0.02 to 300 nM). DMSO can be used as vehicle control. Cells are fixed and are blocked with Intercept (PBS) Blocking Buffer (e.g., Li—COR, Odyssey Blocking Buffer), and are stained with ER (e.g., 1:500, Cell signaling) primary antibody for overnight at cold room. Secondary Antibody (e.g., IRDye 800CW Goat anti-Rabbit IgG) and CellTag 700 Stain are added in Intercept (PBS) Blocking Buffer. Finally, cell plate is placed in incubator to dry. Image and signal are captured on Odyssey® DLx Imaging System.
(§2) Day 3: After 16 hrs of compounds treatment, cells were fixed by 4% PFA and permeabilized with elution buffer (0.1% Triton X-100 in 1% PBS Solution). Subsequently, cells were blocked with Intercept (PBS) Blocking Buffer (Li—COR, Odyssey Blocking Buffer), and were stained with ER (1:500, Cell signaling) primary antibody for overnight at cold room.
(§3) Day 4: Remove the buffer, add IRDye 800CW Goat anti-Rabbit IgG Secondary Antibody (1:2000) and CellTag 700 Stain (1:500) in Intercept (PBS) Blocking Buffer. Finally, cell plate is placed in incubator to dry. Image and signal were captured on Odyssey® DLx Imaging System.

Assay [3] addresses ER in T47D cells (Homo sapiens (Human), UniProt P03372). Nature of the assay: In-cell western (ICW) ER degradation assay in T47D cells (Compounds A1-A70). The settings on record: T47D cells, 16 hrs treatment; for DC50: ER degradation, 0.02 to 300 nM; for Dmax: T47D, maximal ER degradation, read-out: T47D ICW Dmax (%). The class given is cell-based. The procedure:
as §1, §2, §3

Chain of CRBN/DDB1 (Q96SW2 whole entry): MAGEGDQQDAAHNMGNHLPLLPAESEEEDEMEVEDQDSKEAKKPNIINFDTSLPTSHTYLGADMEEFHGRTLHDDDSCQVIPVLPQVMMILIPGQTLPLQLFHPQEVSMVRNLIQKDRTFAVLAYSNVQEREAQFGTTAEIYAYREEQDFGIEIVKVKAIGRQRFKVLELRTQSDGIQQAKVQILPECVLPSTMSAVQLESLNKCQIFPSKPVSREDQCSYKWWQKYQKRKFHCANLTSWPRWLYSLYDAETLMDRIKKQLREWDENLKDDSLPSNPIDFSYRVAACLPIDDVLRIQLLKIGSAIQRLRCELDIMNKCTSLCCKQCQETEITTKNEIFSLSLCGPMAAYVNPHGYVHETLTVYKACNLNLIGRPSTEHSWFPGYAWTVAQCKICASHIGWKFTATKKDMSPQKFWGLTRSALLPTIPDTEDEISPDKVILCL
Chain of CRBN/DDB1 (Q16531 whole entry partner): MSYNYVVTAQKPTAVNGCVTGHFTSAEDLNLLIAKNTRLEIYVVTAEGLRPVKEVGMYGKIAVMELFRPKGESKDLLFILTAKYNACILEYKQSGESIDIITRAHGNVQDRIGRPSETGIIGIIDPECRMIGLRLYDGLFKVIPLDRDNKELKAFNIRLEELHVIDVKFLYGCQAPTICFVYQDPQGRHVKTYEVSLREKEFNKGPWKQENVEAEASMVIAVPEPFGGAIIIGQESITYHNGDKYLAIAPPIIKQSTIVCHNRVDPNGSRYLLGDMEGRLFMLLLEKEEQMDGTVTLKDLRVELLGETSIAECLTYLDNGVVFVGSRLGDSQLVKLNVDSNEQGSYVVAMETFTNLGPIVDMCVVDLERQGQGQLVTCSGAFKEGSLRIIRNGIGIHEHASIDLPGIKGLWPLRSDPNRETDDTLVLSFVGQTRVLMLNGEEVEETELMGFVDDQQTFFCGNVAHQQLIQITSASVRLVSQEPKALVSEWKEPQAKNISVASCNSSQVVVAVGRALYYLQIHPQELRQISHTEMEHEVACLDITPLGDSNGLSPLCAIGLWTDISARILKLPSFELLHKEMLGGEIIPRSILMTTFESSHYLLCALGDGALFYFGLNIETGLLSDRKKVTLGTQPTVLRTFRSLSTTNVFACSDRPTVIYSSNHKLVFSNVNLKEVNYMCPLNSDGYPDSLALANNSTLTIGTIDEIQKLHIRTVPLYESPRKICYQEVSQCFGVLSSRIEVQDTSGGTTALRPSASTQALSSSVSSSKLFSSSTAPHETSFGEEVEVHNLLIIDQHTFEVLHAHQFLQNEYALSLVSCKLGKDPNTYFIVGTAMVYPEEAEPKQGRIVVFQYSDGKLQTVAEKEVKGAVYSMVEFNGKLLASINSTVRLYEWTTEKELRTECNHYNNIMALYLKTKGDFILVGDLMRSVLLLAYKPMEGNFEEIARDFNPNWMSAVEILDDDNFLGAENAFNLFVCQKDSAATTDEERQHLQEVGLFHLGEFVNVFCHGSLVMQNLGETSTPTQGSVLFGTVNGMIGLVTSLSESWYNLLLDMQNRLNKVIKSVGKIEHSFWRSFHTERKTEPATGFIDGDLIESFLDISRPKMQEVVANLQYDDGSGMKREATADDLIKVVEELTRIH
Chain of ER in MCF-7 cells (P03372 whole entry): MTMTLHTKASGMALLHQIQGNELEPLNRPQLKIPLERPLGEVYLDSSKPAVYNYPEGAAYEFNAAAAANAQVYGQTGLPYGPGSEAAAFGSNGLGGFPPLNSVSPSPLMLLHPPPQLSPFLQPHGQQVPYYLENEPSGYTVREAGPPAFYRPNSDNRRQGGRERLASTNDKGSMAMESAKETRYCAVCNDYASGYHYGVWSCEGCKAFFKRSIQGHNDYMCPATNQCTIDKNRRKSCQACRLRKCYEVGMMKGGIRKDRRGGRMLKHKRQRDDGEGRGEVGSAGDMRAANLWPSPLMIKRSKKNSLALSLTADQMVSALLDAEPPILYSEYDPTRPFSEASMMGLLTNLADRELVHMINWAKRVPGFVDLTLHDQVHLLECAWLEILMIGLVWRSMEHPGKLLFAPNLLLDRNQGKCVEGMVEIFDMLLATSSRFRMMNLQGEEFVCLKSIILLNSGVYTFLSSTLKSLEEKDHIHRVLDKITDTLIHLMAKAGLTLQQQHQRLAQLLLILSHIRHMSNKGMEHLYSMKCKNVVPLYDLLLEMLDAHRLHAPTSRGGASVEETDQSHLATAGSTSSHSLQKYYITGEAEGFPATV
Chain of ER in T47D cells (P03372 whole entry): as above

As to `C[C@@H]1Cc2c([nH]c3ccccc23)[C@@H](c2cnc(N3CCC(CN4CCN5c6ccc7c(c6OC[C@@H]5C4)CN(C4CCC(=O)NC4=O)C7=O)CC3)nc2)N1CC(F)F` (stereo partly drawn) [Compound A5, 3-((S)-7-((1-(5-((1R,3R)-2-(2,2-difluoroethyl)-3-methyl-2,3,4,9-tetrahydro-1H-pyrido[3,4-b]indol-1-yl)pyrimidin-2-yl)piperidin-4-yl)methyl)-1-oxo-1,3,5,5a,6,7,8,9-octahydro-2H-pyrazino[1′,2′:4,5]oxazino[2,3-e]isoindol-2-yl)piperidine-2,6-dione], in assay [1], the IC50 lay within 50 to 500 nM. Also, in assay [2], the DC50 was in the range of 1 to 10 nM and the Dmax lay within 50 to 75%.

For the compound `C[C@@H]1Cc2c([nH]c3ccccc23)[C@@H](c2cnc(N3CCC4(CCC(CN5CCN6c7cc8c(cc7OC[C@@H]6C5)C(=O)N([C@H]5CCC(=O)NC5=O)C8)CC4)CC3)nc2)N1CC(C)(C)F` [Compound A9, (S)-3-((S)-3-((3-(5-((1R,3R)-2-(2-fluoro-2-methylpropyl)-3-methyl-2,3,4,9-tetrahydro-1H-pyrido[3,4-b]indol-1-yl)pyrimidin-2-yl)-3-azaspiro[5.5]undecan-9-yl)methyl)-8-oxo-1,2,3,4,4a,5,8,10-octahydro-9H-pyrazino[1′,2′:4,5][1,4]oxazino[2,3-f]isoindol-9-yl)piperidine-2,6-dione], the IC50 in assay [1] was > 5000 nM. In assay [2], the DC50 is < 1 nM and the greatest degradation seen (Dmax) fell in the range of 25 to 50%.

Take `C[C@@H]1Cc2c([nH]c3ccccc23)[C@@H](c2ccc(N3CCC4(CC3)CC(CN3CCN5c6cc7c(cc6OC[C@@H]5C3)C(=O)N([C@H]3CCC(=O)NC3=O)C7)C4)nc2)N1CC(F)F` [Compound A11, (S)-3-((S)-3-((7-(5-((1R,3R)-2-(2,2-difluoroethyl)-3-methyl-2,3,4,9-tetrahydro-1H-pyrido[3,4-b]indol-1-yl)pyridin-2-yl)-7-azaspiro[3.5]nonan-2-yl)methyl)-8-oxo-1,2,3,4,4a,5,8,10-octahydro-9H-pyrazino[1′,2′:4,5][1,4]oxazino[2,3-f]isoindol-9-yl)piperidine-2,6-dione]: the concentration for half-maximal inhibition (IC50) in assay [1] lay within 500 to 5000 nM. In assay [2], the DC50 is 1 to 10 nM and the maximal degradation (Dmax) was 50 to 75%.

As for `C[C@@H]1Cc2c([nH]c3ccccc23)[C@@H](c2cnc(N3CCO[C@H](CN4CCN5c6cc7c(cc6OC[C@@H]5C4)C(=O)N(C4CCC(=O)NC4=O)C7)C3)nc2)N1CC(C)(C)F` (stereo partly drawn) [Compound A22, 3-((S)-3-(((R)-4-(5-((1R,3R)-2-(2-fluoro-2-methylpropyl)-3-methyl-2,3,4,9-tetrahydro-1H-pyrido[3,4-b]indol-1-yl)pyrimidin-2-yl)morpholin-2-yl)methyl)-8-oxo-1,2,3,4,4a,5,8,10-octahydro-9H-pyrazino[1′,2′:4,5][1,4]oxazino[2,3-f]isoindol-9-yl)piperidine-2,6-dione], the IC50 in assay [1] is 50 to 500 nM. Moreover, the DC50 was 1 to 10 nM in assay [2] and < 1 nM in assay [3]. Also, the Dmax in assay [2] and in assay [3] was 25 to 50% in each case.

For `C[C@@H]1Cc2c([nH]c3ccccc23)[C@@H](c2ccc(N3CCC(CN4CCN5c6ccc7c(c6OC[C@@H]5C4)CN([C@H]4CCC(=O)NC4=O)C7=O)CC3)nc2)N1CC(F)F` [Compound A23, (S)-3-((S)-7-((1-(5-((1R,3R)-2-(2,2-difluoroethyl)-3-methyl-2,3,4,9-tetrahydro-1H-pyrido[3,4-b]indol-1-yl)pyridin-2-yl)piperidin-4-yl)methyl)-1-oxo-1,3,5,5a,6,7,8,9-octahydro-2H-pyrazino[1′,2′:4,5][1,4]oxazino[2,3-e]isoindol-2-yl)piperidine-2,6-dione], in assay [1], the IC50 lay in the range of 50 to 500 nM. Also, in assay [2], the half-maximal degradation concentration (DC50) lay in the range of 1 to 10 nM and the Dmax fell in the range of 25 to 50%. Also, in assay [3], the DC50 lay in the range of 1 to 10 nM and the Dmax lay within 50 to 75%.

`C[C@@H]1Cc2c([nH]c3ccccc23)[C@@H](c2ccc(N3CCC4(CC3)CC(CN3CCN5c6ccc7c(c6OC[C@@H]5C3)CN([C@H]3CCC(=O)NC3=O)C7=O)C4)nc2)N1CC(F)F` [Compound A24, (S)-3-((S)-7-((7-(5-((1R,3R)-2-(2,2-difluoroethyl)-3-methyl-2,3,4,9-tetrahydro-1H-pyrido[3,4-b]indol-1-yl)pyridin-2-yl)-7-azaspiro[3.5]nonan-2-yl)methyl)-1-oxo-1,3,5,5a,6,7,8,9-octahydro-2H-pyrazino[1′,2′:4,5][1,4]oxazino[2,3-e]isoindol-2-yl)piperidine-2,6-dione]: the 50% inhibitory concentration (IC50) in assay [1] is < 50 nM. In addition, in assay [2], the DC50 lay in the range of 10 to 100 nM and the Dmax fell in the range of 25 to 50%.

On to `C[C@@H]1Cc2c([nH]c3ccccc23)[C@@H](c2cnc([C@H]3CC[C@H](C(=O)N4CCC(N5Cc6cc7c(cc6C5)C(=O)N(C5CCC(=O)NC5=O)C7)CC4)CC3)nc2)N1CC(F)F` (stereo partly drawn) [Compound A25, 3-(6-(1-((1R,4r)-4-(5-((1R,3R)-2-(2,2-difluoroethyl)-3-methyl-2,3,4,9-tetrahydro-1H-pyrido[3,4-b]indol-1-yl)pyrimidin-2-yl)cyclohexane-1-carbonyl)piperidin-4-yl)-1-oxo-3,5,6,7-tetrahydropyrrolo[3,4-f]isoindol-2(1H)-yl)piperidine-2,6-dione], for which the IC50 in assay [1] was < 50 nM. In assay [2], the DC50 is 10 to 100 nM and the Dmax is < 25%. Further, in assay [3], the 50% degradation concentration (DC50) is < 1 nM and the Dmax was in the range of 25 to 50%.

On to `C[C@@H]1Cc2c([nH]c3ccccc23)[C@@H](c2cnc(N3CCN(CC4CCN(c5ccc(N6CCC(=O)NC6=O)cc5)CC4)CC3)nc2)N1CC(F)F` [Compound A38, 1-(4-(4-((4-(5-((1R,3R)-2-(2,2-difluoroethyl)-3-methyl-2,3,4,9-tetrahydro-1H-pyrido[3,4-b]indol-1-yl)pyrimidin-2-yl)piperazin-1-yl)methyl)piperidin-1-yl)phenyl)dihydropyrimidine-2,4(1H,3H)-dione], for which the concentration for half-maximal inhibition (IC50) in assay [1] lay within 500 to 5000 nM. In assay [3], the DC50 lay in the range of 1 to 10 nM and the Dmax was < 25%.

In the case of `COc1cc(N2CCC(CN3CCC(c4ccc(N[C@H]5CCC(=O)NC5=O)c(F)c4)CC3)CC2)ccc1[C@@H]1c2[nH]c3ccccc3c2C[C@@H](C)N1CC(F)F` [Compound A40, (S)-3-((4-(1-((1-(4-((1R,3R)-2-(2,2-difluoroethyl)-3-methyl-2,3,4,9-tetrahydro-1H-pyrido[3,4-b]indol-1-yl)-3-methoxyphenyl)piperidin-4-yl)methyl)piperidin-4-yl)-2-fluorophenyl)amino)piperidine-2,6-dione], the IC50 in assay [1] is > 5000 nM. For the same compound, in assay [3], the DC50 was < 1 nM and the greatest degradation seen (Dmax) is 25 to 50%.

For `COc1cc(N2CCC(CN3CCN(c4ccc(NC5CCC(=O)NC5=O)c(F)c4)CC3)CC2)ccc1[C@@H]1c2[nH]c3ccccc3c2C[C@@H](C)N1CC(F)F` (stereo partly drawn) [Compound A41, 3-((4-(4-((1-(4-((1R,3R)-2-(2,2-difluoroethyl)-3-methyl-2,3,4,9-tetrahydro-1H-pyrido[3,4-b]indol-1-yl)-3-methoxyphenyl)piperidin-4-yl)methyl)piperazin-1-yl)-2-fluorophenyl)amino)piperidine-2,6-dione], the IC50 in assay [1] was 500 to 5000 nM. In assay [3], the half-maximal degradation concentration (DC50) lay within 10 to 100 nM and the greatest degradation seen (Dmax) lay within 25 to 50%.

With `COc1cc(N2CCC(CN3CCN(c4ccc(C5CCC(=O)NC5=O)cc4)CC3)CC2)ccc1[C@@H]1c2[nH]c3ccccc3c2C[C@@H](C)N1CC(F)F` (stereo partly drawn) [Compound A46, 3-(4-(4-((1-(4-((1R,3R)-2-(2,2-difluoroethyl)-3-methyl-2,3,4,9-tetrahydro-1H-pyrido[3,4-b]indol-1-yl)-3-methoxyphenyl)piperidin-4-yl)methyl)piperazin-1-yl)phenyl)piperidine-2,6-dione], the half-maximal inhibitory concentration (IC50) in assay [1] lay within 50 to 500 nM. Moreover, in assay [3], the DC50 was < 1 nM and the maximal degradation (Dmax) lay in the range of 25 to 50%.

Take `COc1cc(N2CCC(CN3CCN(c4cnc(C(=O)NC5CCC(=O)NC5=O)cc4OC)CC3)CC2)ccc1[C@@H]1c2[nH]c3ccccc3c2C[C@@H](C)N1CC(F)F` (stereo partly drawn) [Compound A56, 5-(4-((1-(4-((1R,3R)-2-(2,2-difluoroethyl)-3-methyl-2,3,4,9-tetrahydro-1H-pyrido[3,4-b]indol-1-yl)-3-methoxyphenyl)piperidin-4-yl)methyl)piperazin-1-yl)-N-(2,6-dioxopiperidin-3-yl)-4-methoxypicolinamide]: in assay [1], the concentration for half-maximal inhibition (IC50) was > 5000 nM. Besides, in assay [2], the half-maximal degradation concentration (DC50) is < 1 nM and the Dmax fell in the range of 50 to 75%.

The record behind these values is patent publication US20260007681A1, “INDOLE DERIVATIVES AS ESTROGEN RECEPTOR DEGRADERS” (REGENTS OF THE UNIVERSITY OF MICHIGAN, priority 2022, published 2026).
